Measurements reported in paper PMC12686243, “Synthesis and preclinical evaluation of FAP-targeting radiotracers for PET and optical imaging” (EJNMMI Radiopharmacy and Chemistry, 2025).
Where two headings read alike, the source gives them in different places.

What was measured:
WT-HT1080 cells = experiment: real-time binding control on wild type HT1080 cells; design: species or system human; conditions: cells lacking substantial FAP expression
Experimental: To determine binding kinetics (association rate constant ka, dissociation rate constant kd, and thermodynamic dissociation constant KD), real-time assay systems (LigandTracer Yellow/White for radioactivity and Green with Red/NIR + and NIR + + /IR detectors for fluorescence; Ridgeview Instruments AB, Sweden) were utilized. In a 100 mm petri dish, cells or tissue sections in medium (3–4 mL total volume), are located on one side, while the radioactive or fluorescent signal is detected on the opposite, elevated side. Rotation on an inclined base in set intervals (30 s) allows continuous measurement of signal in the target (cells/tissue) against background area (no cells/tissue). Experiments were performed at room temperature, using CO2-independent medium, usually with 0.5–1% w/v bovine serum albumin, (#1ETA, Carl Roth, Germany). Association was determined through incubation with two distinct concentrations (between 1–5 and 4.5–10 nM, 60 min each, additive) for each compound. For that purpose, the same ligand preparation was typically employed for radioactive and fluorescent detection. This was followed by replacement with fresh medium and observation of dissociation for at least 2 h. Additionally, the dissociation rate constant was further investigated beyond 6 h, either using fluorescent detection or via gallium-67 (t1/2: 78.3 h). […]

[1] = system: hFAP-HT1080 and WT-HT1080 xenografts; experiment: small-animal PET imaging of xenograft-bearing mice; format: in vivo, female NMRI-nude mice
Source text: Female athymic NMRI-nude mice (Rj:NMRI-Foxn1nu, Janvier Labs, France or Charles River, Germany) between 8 and 20 weeks of age were used. Subsequently, the prepared cells (1.0–2.0 × 10^6 hFAP/WT-HT1080 per animal) were subcutaneously injected into the right and left thigh, respectively. Xenograft tissue for real-time binding experiments was derived from animals injected with both target-positive and negative cells, however only showing growth of one tumor entity. When approaching endpoints, mice were anesthetized and euthanized. The tumor was quickly removed, frozen in − 45 °C 2-methylbutane and stored in sealed tubes at − 80 °C.
PET and X-ray computed tomography (CT) were performed in a dedicated small animal scanner (nanoScan PET/CT, Mediso, Hungary). Animals received a single dynamic scan corresponding to 0–2 h post injection. The radiotracer solution (8 – 20 MBq injected activity) was delivered via an i.v. catheter (lateral tail vein) and PET acquisition was started simultaneously with the injection. Blocking was performed by pre-injection (~ 5 min prior to tracer) of 100 nmol of FAPI-04. Three-dimensional list mode data were binned (400–600 keV energy window) and sorted into 35-time frames (15 × 10 s, 5 × 30 s, 5 × 60 s, 4 × 300 s, 3 × 600 s, 3 × 1200 s). Time frames were then reconstructed using the Tera-Tomo™ 3D algorithm with a voxel size of 0.4 mm and corrected for decay, scatter, and attenuation. PET data was analyzed using Rover (ABX GmbH, Germany). Three-dimensional volumes of interest (VOI) were delineated based on organs/tissues [xenografts, kidney, liver, shoulder and muscle (~ biceps brachii)] and a fixed threshold (35% of the measured maximum intensity) was applied. This yielded standardized uptake values (SUV = [MBq detected activity/mL tissue] / [MBq injected activity/g body weight], mL/g) for the chosen VOI.

[2] = target: T1, hFAP (vital hFAP-HT1080 cells) (Homo sapiens, UniProt Q12884); experiment: real-time binding (LigandTracer) to vital hFAP-HT1080 cells; conditions: for Bmax (%): fitted per individual curve, range; for Bmax (%) / ka / kd: room temperature; for ka / kd: global fit, 1:1 model
T1 construct: expressed in transfected cells; host or cells: HT1080 (human fibrosarcoma), lentiviral transduction
T1 sequence (Q12884 1-760): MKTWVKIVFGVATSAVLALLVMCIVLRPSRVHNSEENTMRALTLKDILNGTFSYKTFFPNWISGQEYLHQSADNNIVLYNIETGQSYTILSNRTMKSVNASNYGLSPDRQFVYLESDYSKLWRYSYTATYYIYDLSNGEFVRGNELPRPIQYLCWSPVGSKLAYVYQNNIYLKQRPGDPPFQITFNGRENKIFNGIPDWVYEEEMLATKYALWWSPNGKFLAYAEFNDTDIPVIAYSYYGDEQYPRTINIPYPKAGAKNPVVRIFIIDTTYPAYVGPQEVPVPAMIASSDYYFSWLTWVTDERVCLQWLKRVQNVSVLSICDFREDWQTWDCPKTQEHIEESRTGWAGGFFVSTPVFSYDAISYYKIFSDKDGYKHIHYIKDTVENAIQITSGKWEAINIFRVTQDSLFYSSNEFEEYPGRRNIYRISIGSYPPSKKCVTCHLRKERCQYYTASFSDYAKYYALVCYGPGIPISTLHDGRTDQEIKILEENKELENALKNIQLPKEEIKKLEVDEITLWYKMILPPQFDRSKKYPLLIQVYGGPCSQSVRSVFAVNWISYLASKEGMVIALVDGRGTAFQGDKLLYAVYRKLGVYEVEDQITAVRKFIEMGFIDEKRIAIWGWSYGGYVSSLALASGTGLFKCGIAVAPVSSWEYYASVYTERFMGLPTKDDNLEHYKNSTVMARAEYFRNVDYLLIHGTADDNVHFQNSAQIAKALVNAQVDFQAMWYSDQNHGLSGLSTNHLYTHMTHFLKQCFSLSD
Experimental: To determine binding kinetics (association rate constant ka, dissociation rate constant kd, and thermodynamic dissociation constant KD), real-time assay systems (LigandTracer Yellow/White for radioactivity and Green with Red/NIR + and NIR + + /IR detectors for fluorescence; Ridgeview Instruments AB, Sweden) were utilized. In a 100 mm petri dish, cells or tissue sections in medium (3–4 mL total volume), are located on one side, while the radioactive or fluorescent signal is detected on the opposite, elevated side. Rotation on an inclined base in set intervals (30 s) allows continuous measurement of signal in the target (cells/tissue) against background area (no cells/tissue). Experiments were performed at room temperature, using CO2-independent medium, usually with 0.5–1% w/v bovine serum albumin, (#1ETA, Carl Roth, Germany). Association was determined through incubation with two distinct concentrations (between 1–5 and 4.5–10 nM, 60 min each, additive) for each compound. For that purpose, the same ligand preparation was typically employed for radioactive and fluorescent detection. This was followed by replacement with fresh medium and observation of dissociation for at least 2 h. Additionally, the dissociation rate constant was further investigated beyond 6 h, either using fluorescent detection or via gallium-67 (t1/2: 78.3 h). This approach provides reliable kinetic measurements in a 1:1 interaction setting, as previously shown (Onell and Andersson [2005]).
Binding data was evaluated using TraceDrawer (1.9.2, Ridgeview Instruments AB, Sweden). Traces were imported, potential spikes (> 100% sudden signal increases over previous datapoints) removed and each trace was normalized to its own baseline (= 0%) and highest value (= 100%, typically at the end of the second association phase). This allows comparing data across experiments and ultimately global fitting, without differences, e.g. of molar activity, affecting it. Typically, at least 3 individual traces per ligand, substrate and modality were recorded. Data was fitted in TraceDrawer using a 1:1 interaction model, with/without accounting for bulk effect. A 1:1 interaction is the simplest model, as it describes the binding of a ligand at a constant concentration to the target, with each one molecule of ligand binding to one molecule of target.

[3] = from global fit of ka and kd, read-out: KD
[4] = real-time binding, live cells, read-out: binding affinity (KD)

With CN(CCCN1CCN(C(=O)[C@H](CCCCNC(=O)CC[C@H](C(=O)[O-])N2CCN(CC(=O)[O-])CCN(CC(=O)[O-])CC2)NC(=O)CCOCCOCCOCCOCCNC(=O)CCCCCN2C(=CC=C3CCCC(C=CC4=[N+](CCCCS(=O)(=O)[O-])c5ccc(S(=O)(=O)O)cc5C4(C)C)=C3Oc3ccc(S(=O)(=O)O)cc3)C(C)(C)c3cc(S(=O)(=O)O)ccc32)CC1)c1ccc2nccc(C(=O)NCC(=O)N3CC(F)(F)C[C@H]3C#N)c2c1.[68Ga+3] [[^68Ga]Ga-NODAGA-FAP800] the “binding to wild type HT1080 cells” value (WT-HT1080 cells) was “lacking any binding”, the “radioactivity in hFAP-HT1080 xenografts higher than in WT-HT1080 tumor (SUVmean)” value ([1]; SUVmean) was 236% and the “increase of radioactivity in the kidney compared to tracer-only animals” value ([1]; pre-injection of unlabeled FAPI-04, depending on timepoint) was “not observed”. For the same molecule, the “Bmax (%)” value [2] was 91–96%, the Kd [2, 3] was 0.0576 nM and the ka [2] was 411000 M⁻¹ s⁻¹. For the same molecule, the kd [2] was 2.37e-05 s⁻¹ and the Kd [2, 4] was 0.058 nM.

For CN(CCCN1CCN(C(=O)[C@H](CCCCNC(=O)CC[C@H](C(=O)[O-])N2CCN(CC(=O)[O-])CCN(CC(=O)[O-])CC2)NC(=O)CCOCCOCCOCCOCCNC(=O)CCCCC[N+]2=C(C=CC=CC=C3N(CCCS(=O)(=O)O)c4ccc(S(=O)(=O)O)cc4C3(C)C)C(C)(CCCS(=O)(=O)O)c3cc(S(=O)(=O)[O-])ccc32)CC1)c1ccc2nccc(C(=O)NCC(=O)N3CC(F)(F)C[C@H]3C#N)c2c1.[68Ga+3] (stereo partly drawn) [[^68Ga]Ga-NODAGA-FAP647], the “binding to wild type HT1080 cells” value (WT-HT1080 cells) was “lacking any binding”, the “radioactivity in hFAP-HT1080 xenografts higher than in WT-HT1080 tumor (SUVmax)” value ([1]; SUVmax) was 392% and the “Bmax (%)” value [2] was 84–98%. For the same molecule, the Kd [2, 3] was 0.0138 nM, the ka [2] was 484000 M⁻¹ s⁻¹ and the kd [2] was 6.67e-06 s⁻¹. The Kd [2, 4] was 0.014 nM.
